Reference: patent US12275734B1, “Pleuromutilin onium salt derivative containing a 3H-imidazo[4,5-c]pyridine side chain, and a preparation method and application thereof” (SHAANXI UNIVERSITY OF SCIENCE AND TECHNOLOGY, priority 2024, dated 2025)

Legend:
Assay in all cases: MIC, broth microdilution
Type in all cases: cell-based
E.coli CMCC 44103 = conditions: Escherichia coli, CMCC44103; E.coli CMCC 44103; read-out: Minimum inhibitory concentration E.c.^i
Protocol: (§1) The minimum inhibitory concentration of 3H-imidazo[4,5-C]pyridine pleuromutilin onium salt derivatives against the tested pathogenic microorganisms were determined by broth microdilution method, with valnemulin and retapamulin as positive controls.
(§2) The experimental strains included resistant Gram-positive bacteria: Methicillin-resistant S. aureus ATCC 33591; Methicillin-resistant S. aureus ATCC 43300; S. aureus ATCC 29213; Methicillin-resistant S. epidermidis ATCC 51625. Resistant Gram-negative bacteria: A. baumannii ATCC 19606; S. enterica ATCC14028; E. coli ATCC 25922; E. coli CMCC 44103. 9 clinically isolated resistant strains: MRSA-171; MRSA-575; MRSA-206; MRSA-222; MRSA-596; VRE-80; MDR-PA-126; MDR-KP-893; CR-AB-882.
(§3) (1) Preparation of MHB medium: Weigh 18.0 g of MHB medium pre-made powder, add it to 1 L of distilled water, heat and boil until completely dissolved, divide it into conical bottles, sterilize it by high pressure at 121° C. for 15 minutes, and set aside.
(§4) (2) Cultivate the experimental strain to the logarithmic growth phase: Under sterile conditions, inoculate the experimental strain into fresh MHB medium and culture it in a 37° C. constant temperature and humidity incubator for 16-24 hours. Adjust the bacterial solution concentration to 1.5×10^8 CFU/mL and then dilute it 200 times for later use.
(§5) (3) Preparation of storage solution: Weigh the sample to be tested, dissolve it in 1% DMSO solution, and prepare a storage solution with a concentration of 2560 μg/mL; weigh the positive control, dissolve it in sterile distilled water, and prepare a storage solution with a concentration of 2560 μg/mL.
(§6) (4) Preparation of bacterial suspension: Under sterile conditions, the experimental strain cultured to the logarithmic growth phase was calibrated to a 0.5 McFarland unit turbidity standard using MHB medium and then diluted at a ratio of 1:200 to prepare a bacterial suspension with a concentration of 5×10^5 CFU/mL for later use.
(§7) (5) Determination of MIC by two-fold microdilution method: Take a sterile 96-well plate, add 10 μL of the test compound at a concentration of 2560 μg/mL, and perform serial dilutions by the two-fold dilution method. At the same time, set up a negative control group without drug. Then add 190 μL of diluted bacterial solution to each well, so that the final bacterial solution concentration in each well is 5×10^5 CFU/mL, and incubate in a 37° C. constant temperature and humidity chamber for 24 hours.

[1] = system: Methicillin-resistant S. aureus ATCC 33591; conditions: Staphylococcus aureus, ATCC 33591 / MRSA; Methicillin-resistant S. aureus ATCC 33591; read-out: Minimum inhibitory concentration MRSA^b
Protocol: as §1, §2, §3, §4, §5, §6, §7

S. aureus ATCC 29213 = conditions: Staphylococcus aureus, ATCC29213; S. aureus ATCC 29213; read-out: Minimum inhibitory concentration S.a.^d
Protocol: as §1, §2, §3, §4, §5, §6, §7

[2] = system: Methicillin-resistant S. epidermidis ATCC 51625; conditions: Staphylococcus epidermidis, ATCC 51625 / MRSE; Methicillin-resistant S. epidermidis ATCC 51625; read-out: Minimum inhibitory concentration MRSE^e
Protocol: as §1, §2, §3, §4, §5, §6, §7

[3] = system: Methicillin-resistant S. aureus ATCC 43300; conditions: Staphylococcus aureus, ATCC 43300 / MRSA; Methicillin-resistant S. aureus ATCC 43300; read-out: Minimum inhibitory concentration MRSA^c
Protocol: as §1, §2, §3, §4, §5, §6, §7

E. coli ATCC 25922 = conditions: Escherichia coli, ATCC25922; E. coli ATCC 25922; read-out: Minimum inhibitory concentration E.c.^h
Protocol: as §1, §2, §3, §4, §5, §6, §7

A. baumannii ATCC 19606 = conditions: Acinetobacter baumannii, ATCC19606; A. baumannii ATCC 19606; read-out: Minimum inhibitory concentration A.b.^f
Protocol: as §1, §2, §3, §4, §5, §6, §7

S. enterica ATCC14028 = conditions: Salmonella enterica; S. enterica ATCC14028; read-out: Minimum inhibitory concentration S.e.^g
Protocol: as §1, §2, §3, §4, §5, §6, §7

MIC (E.coli CMCC 44103) [µg/mL] | MIC [1] [µg/mL] | MIC (S. aureus ATCC 29213) [µg/mL] | MIC [2] [µg/mL] | MIC [3] [µg/mL] | MIC (E. coli ATCC 25922) [µg/mL] | MIC (A. baumannii ATCC 19606) [µg/mL] | MIC (S. enterica ATCC14028) [µg/mL] | Structure (SMILES)
8 | 8 | 8 | 16 | 4 | 16 | 32 | 4 | C=C[C@]1(C)C[C@@H](OC(=O)CSc2nc3cc[n+](Cc4ccc(Br)cc4)cc3[nH]2)[C@]2(C)[C@H](C)CC[C@]3(CCC(=O)[C@H]32)[C@@H](C)[C@@H]1O [Compound a, 5-(4-bromobenzyl)-2-((2-(((3aR,4R,5R,7S,8S,9R,9aS,12R)-8-hydroxy-4,7,9,12-tetramethyl-3-oxo-7-vinyldecahydro-4,9a-propancyclopenta[8]cyclo-5-yl)oxy)-2-oxoethyl)thio)-3H-imidazo[4,5-c]pyridin-5-ium]
16 | 32 | 64 | 32 | 64 | 32 | 64 | 16 | C=C[C@]1(C)C[C@@H](OC(=O)CSc2nc3cc[n+](Cc4ccc(C(F)(F)F)cc4)cc3[nH]2)[C@]2(C)[C@H](C)CC[C@]3(CCC(=O)[C@H]32)[C@@H](C)[C@@H]1O [Compound b, 5-(4-trifluoromethyl)-2-((2-(((3aR,4R,5R,7S,8S,9R,9aS,12R)-8-hydroxy-4,7,9,12-tetramethyl-3-oxo-7-vinyldecahydro-4,9a-propancyclopenta[8]cyclo-5-yl)oxy)-2-oxoethyl)thio)-3H-imidazo[4,5-C]pyridine-5-ium]
8 | 8 | 4 | 16 | 16 | 8 | 32 | 16 | C=C[C@]1(C)C[C@@H](OC(=O)CSc2nc3cc[n+](Cc4ccc(F)cc4)cc3[nH]2)[C@]2(C)[C@H](C)CC[C@]3(CCC(=O)[C@H]32)[C@@H](C)[C@@H]1O [Compound c, 5-(4-fluorobenzyl)-2-((2-(((3aR,4R,5R,7S,8S,9R,9aS,12R)-8-hydroxy-4,7,9,12-tetramethyl-3-oxo-7-vinyldecahydro-4,9a-propancyclopenta[8]cyclo-5-yl)oxy)-2-oxoethyl)thio)-3H-imidazo[4,5-C]pyridine-5-ium]
32 | 16 | 32 | 16 | 8 | 4 | 16 | 16 | C=C[C@]1(C)C[C@@H](OC(=O)CSc2nc3cc[n+](Cc4ccc(OC)cc4)cc3[nH]2)[C@]2(C)[C@H](C)CC[C@]3(CCC(=O)[C@H]32)[C@@H](C)[C@@H]1O [Compound d, 5-(4-methoxybenzyl)-2-((2-(((3aR,4R,5R,7S,8S,9R,9aS,12R)-8-hydroxy-4,7,9,12-tetramethyl-3-oxo-7-vinyldecahydro-4,9a-propancyclopenta[8]cyclo-5-yl)oxy)-2-oxoethyl)thio)-3H-imidazo[4,5-C]pyridine-5-ium]
16 | 32 | 8 | 16 | 16 | 32 | 16 | 32 | C=C[C@]1(C)C[C@@H](OC(=O)CSc2nc3cc[n+](Cc4ccc(Cl)cc4)cc3[nH]2)[C@]2(C)[C@H](C)CC[C@]3(CCC(=O)[C@H]32)[C@@H](C)[C@@H]1O [Compound e, 5-(4-chlorobenzyl)-2-((2-(((3aR,4R,5R,7S,8S,9R,9aS,12R)-8-hydroxy-4,7,9,12-tetramethyl-3-oxo-7-vinyldecahydro-4,9a-propancyclopenta[8]cyclo-5-yl)oxy)-2-oxoethyl)thio)-3H-imidazo[4,5-C]pyridine-5-ium]
8 | 8 | 4 | 4 | 2 | 16 | 8 | 4 | C=C[C@]1(C)C[C@@H](OC(=O)CSc2nc3cc[n+](Cc4ccc([N+](=O)[O-])cc4)cc3[nH]2)[C@]2(C)[C@H](C)CC[C@]3(CCC(=O)[C@H]32)[C@@H](C)[C@@H]1O [Compound f, 5-(4-nitrobenzyl)-2-((2-(((3aR,4R,5R,7S,8S,9R,9aS,12R)-8-hydroxy-4,7,9,12-tetramethyl-3-oxo-7-vinyldecahydro-4,9a-propancyclopenta[8]cyclo-5-yl)oxy)-2-oxoethyl)thio)-3H-imidazo[4,5-C]pyridine-5-ium]
128 | 128 | 64 | 64 | 64 | 64 | 64 | 128 | C=C[C@]1(C)C[C@@H](OC(=O)CSc2nc3cc[n+](Cc4cc(F)c(F)cc4F)cc3[nH]2)[C@]2(C)[C@H](C)CC[C@]3(CCC(=O)[C@H]32)[C@@H](C)[C@@H]1O [Compound g, 5-(2,4,5-trifluorobenzyl)-2-((2-(((3aR,4R,5R,7S,8S,9R,9aS,12R)-8-hydroxy-4,7,9,12-tetramethyl-3-oxo-7-vinyldecahydro-4,9a-propancyclopenta[8]cyclo-5-yl)oxy)-2-oxoethyl)thio)-3H-imidazo[4,5-C]pyridine-5-ium]
8 | 32 | 4 | 32 | 16 | 64 | 16 | 8 | C=C[C@]1(C)C[C@@H](OC(=O)CSc2nc3cc[n+](Cc4ccc(-c5ccccc5)cc4)cc3[nH]2)[C@]2(C)[C@H](C)CC[C@]3(CCC(=O)[C@H]32)[C@@H](C)[C@@H]1O [Compound j, 5-([1,1′-biphenyl]-4-ylmethyl)-2-((2-(((3aR,4R,5R,7S,8S,9R,9aS,12R)-8-hydroxy-4,7,9,12-tetramethyl-3-oxo-7-vinyldecahydro-4,9a-propancyclopenta[8]cyclo-5-yl)oxy)-2-oxoethyl)thio)-3H-imidazo[4,5-C]pyridine-5-ium]
32 | 8 | 16 | 8 | 32 | 32 | 16 | 32 | C=C[C@]1(C)C[C@@H](OC(=O)CSc2nc3cc[n+](Cc4ccc(C(C)(C)C)cc4)cc3[nH]2)[C@]2(C)[C@H](C)CC[C@]3(CCC(=O)[C@H]32)[C@@H](C)[C@@H]1O [Compound k, 5-(4-(tert-butyl)benzyl)-2-((2-(((3aR,4R,5R,7S,8S,9R,9aS,12R)-8-hydroxy-4,7,9,12-tetramethyl-3-oxo-7-vinyldecahydro-4,9a-propancyclopenta[8]cyclo-5-yl)oxy)-2-oxoethyl)thio)-3H-imidazo[4,5-C]pyridine-5-ium]
64 | 64 | 64 | 64 | 32 | 64 | 64 | 32 | C=C[C@]1(C)C[C@@H](OC(=O)CSc2nc3cc[n+](Cc4cc(C)cc(C)c4)cc3[nH]2)[C@]2(C)[C@H](C)CC[C@]3(CCC(=O)[C@H]32)[C@@H](C)[C@@H]1O [Compound l, 5-(3,5-dimethylbenzyl)-2-((2-(((3aR,4R,5R,7S,8S,9R,9aS,12R)-8-hydroxy-4,7,9,12-tetramethyl-3-oxo-7-vinyldecahydro-4,9a-propancyclopenta[8]cyclo-5-yl)oxy)-2-oxoethyl)thio)-3H-imidazo[4,5-C]pyridine-5-ium]
